Assay [1] addresses T1, Serine/threonine-protein kinase LATS2 (Homo sapiens) (UniProt Q9NRM7).
T1 sequence (whole entry): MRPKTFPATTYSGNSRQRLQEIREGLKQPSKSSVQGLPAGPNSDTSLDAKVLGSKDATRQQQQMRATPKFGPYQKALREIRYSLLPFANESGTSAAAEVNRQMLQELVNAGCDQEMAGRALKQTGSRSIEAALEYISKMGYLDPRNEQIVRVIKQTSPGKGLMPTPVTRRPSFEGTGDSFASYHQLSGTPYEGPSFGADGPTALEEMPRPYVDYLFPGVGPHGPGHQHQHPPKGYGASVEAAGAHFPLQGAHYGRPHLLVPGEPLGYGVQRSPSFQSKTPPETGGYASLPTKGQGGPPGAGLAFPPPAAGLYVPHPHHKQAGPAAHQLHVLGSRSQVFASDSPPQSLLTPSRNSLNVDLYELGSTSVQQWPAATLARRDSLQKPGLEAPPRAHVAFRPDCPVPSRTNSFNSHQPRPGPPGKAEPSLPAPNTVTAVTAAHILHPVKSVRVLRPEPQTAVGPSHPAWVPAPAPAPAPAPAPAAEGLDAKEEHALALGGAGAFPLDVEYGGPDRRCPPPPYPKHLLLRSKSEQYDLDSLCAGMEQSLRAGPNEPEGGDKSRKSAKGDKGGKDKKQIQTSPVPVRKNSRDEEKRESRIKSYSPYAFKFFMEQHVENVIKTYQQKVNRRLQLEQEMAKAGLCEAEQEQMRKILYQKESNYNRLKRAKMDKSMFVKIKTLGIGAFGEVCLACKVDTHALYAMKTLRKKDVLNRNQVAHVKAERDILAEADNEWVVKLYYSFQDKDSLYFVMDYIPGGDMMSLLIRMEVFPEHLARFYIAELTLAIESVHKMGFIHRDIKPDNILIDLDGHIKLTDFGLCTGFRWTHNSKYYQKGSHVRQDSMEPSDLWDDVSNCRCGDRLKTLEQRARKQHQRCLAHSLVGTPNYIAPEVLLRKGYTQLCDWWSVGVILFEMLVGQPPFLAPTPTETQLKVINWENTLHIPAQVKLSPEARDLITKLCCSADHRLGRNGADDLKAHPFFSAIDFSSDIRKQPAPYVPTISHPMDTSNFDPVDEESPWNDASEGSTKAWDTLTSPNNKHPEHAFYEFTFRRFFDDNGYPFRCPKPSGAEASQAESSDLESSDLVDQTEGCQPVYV
The experiment in a line: Selectivity interaction (LanthaScreen Eu Kinase Binding Assay) EUB0001632a LATS2. The following applies: at 10 µM. For orientation: TR-FRET usually uses a lanthanide donor and a delayed reading to cut background.

Assay [2] has as its target Tyrosine-protein kinase Srms (Homo sapiens) (UniProt Q9H3Y6). The experiment in a line: Selectivity interaction (Kinase panel (Z-LYTE Assay)) EUB0001632a SRMS. The following applies: at 10 µM.
Assay [3] deals with Tyrosine-protein kinase ABL1 (Homo sapiens), P00519 [T315I]. As to conditions: at 10 µM.
Assay [4] concerns the target Casein kinase II subunit alpha' (Homo sapiens) (UniProt P19784). Kind of assay: Selectivity interaction (SelectScreen profiling (Invitrogen)) EUB0000607a CSNK2A2. As to conditions: at 2 µM.
Assay [5] deals with Serine/threonine-protein kinase PAK 3 (Homo sapiens) (UniProt O75914). Kind of assay: Selectivity interaction (KinaseProfiler screening (Millipore)) EUB0000601a PAK3. The following applies: at 3 µM.
Sequence of Serine/threonine-protein kinase PAK 3 (Homo sapiens) (O75914 whole entry, looked up): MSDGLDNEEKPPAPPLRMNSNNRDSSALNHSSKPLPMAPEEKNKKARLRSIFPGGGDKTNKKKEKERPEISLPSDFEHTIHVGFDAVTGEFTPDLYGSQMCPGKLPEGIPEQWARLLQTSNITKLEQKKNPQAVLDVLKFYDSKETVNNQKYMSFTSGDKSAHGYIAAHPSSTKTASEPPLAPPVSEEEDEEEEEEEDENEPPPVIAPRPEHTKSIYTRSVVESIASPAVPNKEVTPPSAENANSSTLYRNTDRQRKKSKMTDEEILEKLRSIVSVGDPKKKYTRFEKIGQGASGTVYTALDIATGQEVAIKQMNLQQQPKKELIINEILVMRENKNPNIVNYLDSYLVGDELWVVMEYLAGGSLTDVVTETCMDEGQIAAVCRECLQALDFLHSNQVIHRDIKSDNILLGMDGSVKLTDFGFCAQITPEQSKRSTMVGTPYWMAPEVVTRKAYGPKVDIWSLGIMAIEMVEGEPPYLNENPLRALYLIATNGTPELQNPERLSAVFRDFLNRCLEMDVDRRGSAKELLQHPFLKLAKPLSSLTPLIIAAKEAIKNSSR
Assay [6] deals with T2, Dual specificity mitogen-activated protein kinase kinase 6 (Homo sapiens) (UniProt P52564).
T2 sequence (whole entry): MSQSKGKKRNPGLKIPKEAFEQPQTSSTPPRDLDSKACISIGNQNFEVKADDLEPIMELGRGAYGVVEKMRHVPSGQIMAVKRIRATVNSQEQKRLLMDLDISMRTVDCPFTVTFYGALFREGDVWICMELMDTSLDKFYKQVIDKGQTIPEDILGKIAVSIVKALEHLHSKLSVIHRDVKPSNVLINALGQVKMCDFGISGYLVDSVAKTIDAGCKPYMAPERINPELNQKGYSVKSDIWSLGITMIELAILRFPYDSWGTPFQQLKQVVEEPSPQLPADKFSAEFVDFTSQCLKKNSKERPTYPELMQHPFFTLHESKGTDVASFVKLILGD
Kind of assay: Selectivity interaction (ActivX KiNativ screen (kinase selectivity in THP-1 cell lysates)) EUB0000639a MAP2K6. The format is subcellular. The following applies: lysate, at 0.01 µM.

Assay [7] deals with T3, Serine/threonine-protein kinase Sgk3 (Homo sapiens) (UniProt Q96BR1).
T3 sequence (whole entry): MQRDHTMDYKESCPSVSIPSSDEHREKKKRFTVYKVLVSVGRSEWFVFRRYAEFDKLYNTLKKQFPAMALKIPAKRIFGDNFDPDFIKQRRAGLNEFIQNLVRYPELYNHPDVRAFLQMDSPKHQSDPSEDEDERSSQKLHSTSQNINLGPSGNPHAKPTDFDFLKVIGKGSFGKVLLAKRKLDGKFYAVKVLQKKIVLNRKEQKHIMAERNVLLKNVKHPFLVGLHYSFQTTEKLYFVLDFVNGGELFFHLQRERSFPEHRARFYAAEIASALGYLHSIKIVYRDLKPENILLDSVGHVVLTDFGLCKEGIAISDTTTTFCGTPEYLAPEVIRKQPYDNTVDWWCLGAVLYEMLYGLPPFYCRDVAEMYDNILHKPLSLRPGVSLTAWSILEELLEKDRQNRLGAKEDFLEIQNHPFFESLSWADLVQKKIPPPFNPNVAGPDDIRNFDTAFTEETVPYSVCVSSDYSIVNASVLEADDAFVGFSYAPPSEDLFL
The experiment in a line: Selectivity interaction (Ambit KINOMEscan and KiNATiv profiling in Jurkat cells) EUB0000090b SGK3. The format is cell-based. The following applies: at 1 µM.

The target of assay [8] is Serine/threonine-protein kinase 32C (Homo sapiens) (UniProt Q86UX6). The experiment in a line: Selectivity interaction (KinomeScan (DiscoverX)) EUB0001049a STK32C. As to conditions: at 1 µM.
Sequence of Serine/threonine-protein kinase 32C (Homo sapiens) (Q86UX6 whole entry): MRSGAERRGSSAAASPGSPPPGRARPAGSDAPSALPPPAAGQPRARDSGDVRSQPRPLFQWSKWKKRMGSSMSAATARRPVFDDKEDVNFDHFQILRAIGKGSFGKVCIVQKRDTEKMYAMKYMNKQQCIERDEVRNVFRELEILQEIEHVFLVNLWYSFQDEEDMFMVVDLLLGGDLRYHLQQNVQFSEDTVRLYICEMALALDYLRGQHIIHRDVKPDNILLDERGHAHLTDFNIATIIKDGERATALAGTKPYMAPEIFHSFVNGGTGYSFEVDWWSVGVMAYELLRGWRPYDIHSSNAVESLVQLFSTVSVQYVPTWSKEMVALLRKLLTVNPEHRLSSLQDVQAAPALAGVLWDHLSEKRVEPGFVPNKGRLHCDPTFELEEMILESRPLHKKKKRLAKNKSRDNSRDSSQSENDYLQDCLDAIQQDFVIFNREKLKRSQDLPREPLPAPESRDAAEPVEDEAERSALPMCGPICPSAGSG
Assay [9] concerns the target Cyclin-dependent kinase 1/cyclin B (Homo sapiens) (UniProt P06493+P14635+Q8WWL7+O95067). The experiment in a line: Selectivity interaction (Upstate Kinase Profiler service (Millipore)) EUB0000056c CDK1. The format is protein-complex assay. The following applies: at 1 µM.
For assay [10], the target named is T4, Serine/threonine-protein kinase STK11 (Homo sapiens) (UniProt Q15831).
T4 sequence (whole entry): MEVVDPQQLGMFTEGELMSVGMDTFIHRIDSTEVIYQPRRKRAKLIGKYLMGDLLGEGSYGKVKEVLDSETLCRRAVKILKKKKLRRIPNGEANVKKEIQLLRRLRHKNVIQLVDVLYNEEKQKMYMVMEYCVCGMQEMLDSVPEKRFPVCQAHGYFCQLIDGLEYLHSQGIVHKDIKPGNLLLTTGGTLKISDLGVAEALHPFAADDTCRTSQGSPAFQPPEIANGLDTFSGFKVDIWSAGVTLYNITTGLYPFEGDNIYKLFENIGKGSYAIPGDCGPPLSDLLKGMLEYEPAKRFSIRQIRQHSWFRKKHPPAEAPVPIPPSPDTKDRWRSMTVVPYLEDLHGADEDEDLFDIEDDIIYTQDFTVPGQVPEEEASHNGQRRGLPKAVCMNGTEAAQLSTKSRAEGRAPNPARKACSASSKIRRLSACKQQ
The experiment in a line: Selectivity interaction (KinomeScan (DiscoverX)) EUB0000092b STK11. As to conditions: at 10 µM.

Sequence of Casein kinase II subunit alpha' (Homo sapiens) (P19784 whole entry, looked up): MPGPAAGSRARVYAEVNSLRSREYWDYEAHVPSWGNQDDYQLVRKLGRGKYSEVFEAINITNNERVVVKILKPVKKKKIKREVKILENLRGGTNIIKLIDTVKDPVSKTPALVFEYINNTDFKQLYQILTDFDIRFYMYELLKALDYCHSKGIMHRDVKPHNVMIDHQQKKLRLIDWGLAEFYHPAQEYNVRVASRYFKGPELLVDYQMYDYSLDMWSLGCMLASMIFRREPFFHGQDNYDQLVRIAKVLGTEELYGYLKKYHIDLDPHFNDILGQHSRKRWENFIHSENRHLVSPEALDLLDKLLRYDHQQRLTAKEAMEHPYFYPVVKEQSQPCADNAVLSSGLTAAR
Sequence of Tyrosine-protein kinase Srms (Homo sapiens) (Q9H3Y6 whole entry): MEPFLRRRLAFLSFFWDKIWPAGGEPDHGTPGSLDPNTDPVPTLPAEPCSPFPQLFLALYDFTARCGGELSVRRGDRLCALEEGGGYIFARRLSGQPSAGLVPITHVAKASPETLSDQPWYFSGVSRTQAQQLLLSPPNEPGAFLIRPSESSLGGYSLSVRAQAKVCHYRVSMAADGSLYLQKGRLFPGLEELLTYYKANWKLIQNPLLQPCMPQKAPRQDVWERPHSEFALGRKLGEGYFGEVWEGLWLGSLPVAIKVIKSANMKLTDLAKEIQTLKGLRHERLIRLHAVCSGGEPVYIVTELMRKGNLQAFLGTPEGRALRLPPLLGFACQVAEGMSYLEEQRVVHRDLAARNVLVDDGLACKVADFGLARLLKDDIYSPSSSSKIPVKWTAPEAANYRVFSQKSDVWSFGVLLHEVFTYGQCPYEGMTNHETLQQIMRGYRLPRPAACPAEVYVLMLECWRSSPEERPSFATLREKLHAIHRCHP

In the case of `Cn1cc(-n2cnc3c(NCc4nc5cc(Cl)c(Cl)cc5[nH]4)nc(N4CCOCC4)nc32)cn1`, the % of inhibition in [1] turned out to be 1.75%. Moreover, the % of control in assay [2] was -3.87%.

With `CCN(CC)CCCCNc1ncc2cc(-c3cc(OC)cc(OC)c3)c(NC(=O)NC(C)(C)C)nc2n1`, in assay [3], the % of control worked out at 100%.

In assay [4], `CNC(=O)Nc1ccc(-c2nc(N3CC4CCC(C3)O4)c3cnn(C4CCC5(CC4)OCCO5)c3n2)cc1` returned a % of inhibition of 3%.

Consider `CCc1cc(Nc2nccc(-c3c(-c4ccc(OC)c(C(=O)Nc5c(F)cccc5F)c4)nc4ccccn34)n2)c(OC)cc1N1CCC(N2CCN(S(C)(=O)=O)CC2)CC1`, for which the % of inhibition in [5] was 53%.

On to `CC[C@@H]1[C@H](F)C(=O)N[C@@H]1COc1nccc2cc(C(N)=O)c(OC)cc12` [ZIMLOVISERTIB], for which the % of inhibition in [6] worked out at 7.4%.

`CN(C)C/C=C/C(=O)Nc1ccc(C(=O)N2CCCC(Nc3ncc(Cl)c(-c4c[nH]c5ccccc45)n3)C2)cc1` (stereo not given): the % of control in assay [7] is 84%.

As to `COc1cc(Nc2nc(C)cc(-c3cnn4nc(OC)ccc34)n2)cc(C(F)(F)F)c1`, the % of control in assay [8] came out at 87%.

Consider `Cc1ccc(-c2ccc3c(ccc4sc5c(c43)NC[C@@H](C)NC5=O)n2)cn1`, for which the % of inhibition in assay [9] worked out at 68%.

Consider `CCC(=O)N1CCN(c2ccc(-n3c(=O)ccc4cnc5ccc(-c6cnc7ccccc7c6)cc5c43)cc2C(F)(F)F)CC1`, for which the % of control in [10] stood at 100%.

Source of the values: ChEMBL document CHEMBL5465560, “Selectivity Literature for EUbOPEN Chemogenomic Library” (2024).
